From ChEMBL document CHEMBL3751834, “Insight to the binding mode of triazole RGD-peptidomimetics to integrin-rich cancer cells by NMR and molecular modeling” (Bioorg Med Chem, 2016)
pIC50: −log10 of the molar value. The source made the active and inactive calls. The calls are words filed in the database; no cut-off is given here.

Columns and labels:
Integrin alpha-V/beta-3 [1] = biological target: T1, Integrin alpha-V/beta-3 (Homo sapiens, UniProt P05106+P06756); assay: Binding affinity to integrin alphavbeta3 receptor in human ECV304 cells by STD-NMR analysis; type: cell-based; conditions: ECV-304
Integrin alpha-V/beta-3 [2] = biological target: T1, Integrin alpha-V/beta-3; assay: Displacement of 125-I-echistatin from human placental integrin alphavbeta3 receptor incubated for 3 hrs by microplate scintillation counting analysis

| SMILES | Activity (Integrin alpha-V/beta-3 [1]) | IC50H (Integrin alpha-V/beta-3 [2]) [µM] | IC50L (Integrin alpha-V/beta-3 [2]) [µM] | pIC50 (Integrin alpha-V/beta-3 [2]) |
| --- | --- | --- | --- | --- |
| N=C(N)NCCCc1cn(CC(=O)N[C@@H](CC(=O)O)c2ccc(O)cc2)nn1 | Active | – | – | – |
| O=C(O)C[C@H](NC(=O)Cn1cc(CCCNc2nc3ccccc3[nH]2)nn1)c1ccccc1 | Active | 0.012 | 1.12 | – |
| O=C(O)C[C@H](NC(=O)Cn1cc(CCCNc2ccccn2)nn1)c1ccc(O)cc1 | Active | – | – | 6.66 |
| O=C(O)C[C@H](NC(=O)Cn1cc(CCCNc2nc3ccccc3[nH]2)nn1)c1ccc(O)cc1 | Active | – | – | – |
| N=C(N)NCCCc1cn(CC(=O)N[C@@H](CC(=O)O)c2ccccc2)nn1 | Active | – | – | – |
| O=C(O)C[C@H](NC(=O)Cn1cc(CCCNc2ccccn2)nn1)c1ccccc1 | Active | 0.013 | 0.9 | – |
